Source: patent EP4076430B1, “A METHOD OF TREATING NONALCOHOLIC STEATOHEPATITIS” (Vector Vitale IP LLC, priority 2019, dated 2021)
Where “and” joins values, the source holds several entries; their conditions need not be identical. Equal entries are not always repeated. Entries after “also recorded” stand apart in the source; their conditions may differ. One block for each compound: values may come before it.

Key:
Glucose tolerance test = type: in vivo, rats; parameters: Glucose, 0 min (1 h after effector administration): unit not given here; settings: for glucose levels in the glucose tolerance test compared with the control group: 5 mg/kg in 2 ml, glucose 3 g/kg
From the text: 5 animals were used within the same experimental group.

insulin = experiment: Serum insulin level after intraperitoneal administration (ELISA); type: in vivo; settings: intact rats, 3750 µg of zinc per 1 kg, 7 injections every other day
Description: The current dose was calculated by zinc.
The optical density was measured at 492 nm.

[1] = Accumulation of metals in liver and kidney tissues after intraperitoneal administration; type: in vivo, rats; settings: day 1 and day 7 after discontinuation of the substances
Description: The total kidney, liver and muscle homogenates were prepared as follows. Organ excision and homogenization were carried out at a temperature of 1-4°C. Homogenization of tissues was carried out in 50 mM Tris-HCl buffer (pH 7.4) which contained 140 mM NaCl, 1 mM EDTA. The volume of the used buffer in ml was 5 times larger than the mass of isolated organs in grams. The isolated liver was perfused with chilled saline (0.9% NaCl) via the portal vein using a syringe. The minced liver was transferred to a homogenizer with a finely ground Teflon pestle and homogenized in chilled buffer. An isolated pair of kidneys was perfused with chilled saline, released from adipose tissue and minced with scissors. The minced tissue was transferred to a homogenizer with a finely ground Teflon pestle and homogenized in chilled buffer. The total kidney and liver homogenates were centrifuged at 600 g for 15 minutes. The liquid was decanted after the mince settled down and was centrifuged again at 15,000 g for 15 minutes. These two procedures allowed us to get rid of nuclear and mitochondrial debris. Aliquots of the prepared homogenates were frozen in nitrogen (Rybalchenko V.K., Koganov M.M. Structure and function of membrane 1988. - 312 pp).

lipid metabolism = experiment: Serum triglycerides, cholesterol and free fatty acids in obesity model; type: in vivo, rats; settings: high-fat diet, 2.25 mg/ml zinc aspartate intragastrically in 2 ml
[2] = test system: products of oxidative modification of proteins; experiment: Serum levels of products of oxidative modification of proteins in obesity model; type: in vivo, rats; settings: DIO+zinc: high-fat diet, intragastrically every third day
Description: (§1) Animal serum was prepared from whole blood. […] Samples were centrifuged for 15 min at 2500 g.
Proteins were precipitated by adding a 20% TCA solution.

[3] = test system: pro- and anti-inflammatory cytokines; experiment: Serum cytokine profile in obesity model (immunoenzyme method); type: in vivo, rats; settings: intragastrically every third day
Description: as §1

[4] = test system: pro- and anti-inflammatory cytokines; experiment: Cytokine profile in adipose tissue in obesity model (immunoenzyme method); type: in vivo, rats; settings: intragastrically every third day
alkaline phosphatase = experiment: Serum alkaline phosphatase activity in obesity model; type: in vivo; settings: high-fat diet rats treated
From the text: (§2) Test kit // Pliva-Lachema Diagnostika. - 2008.
The alkaline phosphatase activity was expressed in relative units.

[5] = Serum albumin in obesity model; type: in vivo, rats; settings: obese animals treated
From the text: as §2

[6] = Serum glucose concentration in obesity model; type: in vivo, rats; settings: intragastrically every third day
From the text: The glucose concentration was expressed in mmol/L.

pancreas = experiment: Morpho-functional analysis of pancreatic tissue in obesity model; type: in vivo, rats
From the text: After fixation, the pieces were rinsed in tap water. Then the material was dehydrated.
Dried preparations were stained with hematoxylin and eosin.

[7] = test system: peripheral serotonergic system (duodenum); experiment: Indicators of the peripheral serotonergic system in duodenal homogenate, obesity model; type: in vivo, rats; settings: intragastrically every third day
From the text: (§3) The tissue : buffer ratio was 1:10.
(§4) The samples were reprecipitated by centrifugation. […]
(§5) The supernatant was used in further studies.

[8] = test system: tryptophan, serotonin, monoamine oxidase; experiment: Serum tryptophan, serotonin and monoamine oxidase activity, obesity model; type: in vivo, rats; settings: intragastrically every third day
Description: as §1
The samples were reprecipitated by centrifugation.
University. Medicine. - 2000. - 1, No. 494. - P. 40-43.

[9] = test system: central serotonergic system (brain); experiment: Indicators of the central serotonergic system in brain homogenate, obesity model; type: in vivo, rats; settings: intragastrically every third day
From the text: as §3, §4, §5

superoxide dismutase = experiment: Serum superoxide dismutase activity, obesity model; type: in vivo, rats; settings: DIO+zinc: high-fat diet, intragastrically every third day
catalase = experiment: Serum catalase activity, obesity model; type: in vivo, rats; settings: DIO+zinc: high-fat diet, intragastrically every third day
From the text: Korolyuk M.A. et al., Lab. Business. - 1988. - No. 1. - P. 44-67.

[10] = Body weight after intraperitoneal administration; type: in vivo; settings: intact rats, 3750 µg of zinc per 1 kg, 7 injections every other day
islets of Langerhans = experiment: Area of islets of Langerhans after intraperitoneal administration (microscopy); type: in vivo; settings: intact rats, 3750 µg of zinc per 1 kg, day 7 after the last administration
liver = experiment: Morpho-functional analysis of liver tissue (hepatocyte morphometry, fibrosis) in obesity model; type: in vivo, rats; settings: Van Gieson's staining
[11] = Anthropometric values, amount and calorie content of food in high-fat diet induced obesity; settings: 4.5 mg zinc aspartate intragastrically every third day; for BMI: week 10

accumulation of zinc in the kidney and liver tissues [1]: significantly increased
Structure (SMILES): CC(=O)[O-].CC(=O)[O-].[Zn+2] [Zn acetate, Zn(CH3COO)2, reference compound]
glucose levels in the glucose tolerance test compared with the control group (Glucose tolerance test): also dropped, though not so strongly | Glucose, 0 min (1 h after effector administration) (Glucose tolerance test; individual animals, dose: 5 mg/kg in a volume of 2 ml, fast overnight, 5 mg/kg): 4.6 and 5.2 (2×) and 4.9 and 5.1 | Glucose, 60 min (1 h after glucose administration) (Glucose tolerance test; individual animals, dose: 5 mg/kg in a volume of 2 ml, glucose 3 g/kg body weight in 2 ml, 5 mg/kg): 7.2 (2×) and 6.9 and 7.3 and 6.8 | serum insulin levels at day 7 after the withdrawal (insulin): drop in the insulin levels to the value of those of intact/control animals | serum insulin levels on the first day after the drug withdrawal (insulin): significant increase

Structure (SMILES): N[C@@H](CC(=O)[O-])C(=O)[O-].[Zn+2] [^64Zne, zinc aspartate]
glucose levels in the glucose tolerance test compared with the control group (Glucose tolerance test; listed as zinc isotope): drop in glucose concentration; also recorded: decrease in glucose levels | glucose levels in the glucose tolerance test compared with the control group (Glucose tolerance test; listed as zinc isotope ^64Zn): significant decrease in glucose levels | levels of triglycerides, cholesterol and free fatty acids in the serum (lipid metabolism): almost at the same level as in the control group | Aldehyde-dinitrophenyl-hydrazones [2]: 0.253±0.012 nmol/mg protein | Ketone-dinitrophenyl-hydrazones [2]: 0.200±0.024 nmol/mg protein | IFN-γ level ([3]; C+zinc: standard diet): 4.6±0.6 RU/mg protein | IL-1 level ([3]; C+zinc: standard diet): 3.5±0.7 RU/mg protein | IL-4 level ([3]; C+zinc: standard diet): 4.6±0.8 RU/mg protein | IL-6 level ([3]; C+zinc: standard diet): 4.3±0.2 RU/mg protein | IL-10 level ([3]; C+zinc: standard diet): 4.1±0.5 RU/mg protein | IL-12 level ([3]; C+zinc: standard diet): 0.3±0.04 RU/mg protein | TGF level ([3]; C+zinc: standard diet): 4.1±0.4 RU/mg protein | IFN-γ level ([3]; DIO+zinc: high-fat diet): 4.1±1.2 RU/mg protein | IL-1 level ([3]; DIO+zinc: high-fat diet): 4.2±0.4 RU/mg protein | IL-4 level ([3]; DIO+zinc: high-fat diet): 5.6±1.6 RU/mg protein | IL-6 level ([3]; DIO+zinc: high-fat diet): 5.1±0.4 RU/mg protein | IL-10 level ([3]; DIO+zinc: high-fat diet): 6.8±1.1 # RU/mg protein | IL-12 level ([3]; DIO+zinc: high-fat diet): 2.4±0.06 RU/mg protein | TGF level ([3]; DIO+zinc: high-fat diet): 5.7±0.3 # RU/mg protein | TGF level ([3]; DIO+zinc: high-fat diet, listed as Zn-64 stable isotope in aspartate form): 5.7±0.3 RU/mg protein | IFN-γ level ([4]; C+zinc: standard diet): 5.0±0.8 RU/mg protein | IL-1 level ([4]; C+zinc: standard diet): 4.9±1.7 RU/mg protein | IL-4 level ([4]; C+zinc: standard diet): 5.0±0.4 RU/mg protein | IL-6 level ([4]; C+zinc: standard diet): 5.4±0.3 RU/mg protein | IL-10 level ([4]; C+zinc: standard diet): 4.9±0.2 RU/mg protein | IL-12 level ([4]; C+zinc: standard diet): 1.0±0.03 RU/mg protein | TGF level ([4]; C+zinc: standard diet): 5.1±0.6 RU/mg protein | IFN-γ level ([4]; DIO+zinc: high-fat diet): 4.9±0.8 RU/mg protein | IL-1 level ([4]; DIO+zinc: high-fat diet): 5.8±1.8 RU/mg protein | IL-4 level ([4]; DIO+zinc: high-fat diet): 5.1±1.2 RU/mg protein | IL-6 level ([4]; DIO+zinc: high-fat diet): 6.1±0.7 RU/mg protein | IL-10 level ([4]; DIO+zinc: high-fat diet): 5.8±0.8 RU/mg protein | IL-12 level ([4]; DIO+zinc: high-fat diet): 1.99±0.01 RU/mg protein | TGF level ([4]; DIO+zinc: high-fat diet): 5.2±0.9 RU/mg protein | alkaline phosphatase activity (alkaline phosphatase): higher than both in the group of diet-induced obesity models and in the control group | effect on albumin values [5]: no effect | Glucose levels ([6]; C+zinc: standard diet): 4.7 ± 0.2 mmol/L | Glucose levels ([6]; DIO+zinc: high-fat diet): 4.9 ± 0.2 mmol/L | morphology of exocrine cells of the pancreas (pancreas; rats fed a standard diet, hematoxylin & eosin): did not change | cross-sectional surface area of the islets of Langerhans, increase compared with the obesity group (pancreas; rats having obesity): 43% | cross-sectional surface area of the islets of Langerhans, lower than the control value (pancreas; rats having obesity): 29% | cross-sectional surface area of the islets of Langerhans, decrease compared with the control group (pancreas; rats that ate a standard diet): 39% | Indoleamine dioxygenase activity ([7]; C+zinc: standard diet): 2150 ± 231 µmol/mg protein | Monoamine oxidase activity ([7]; C+zinc: standard diet): 3.82 ±0.07 RU/mg protein | Serotonin ([7]; C+zinc: standard diet): 7.41 ± 0.54 µg/g | Tryptophan ([7]; C+zinc: standard diet): 154.7 ± 13.6 µg/g | Tryptophan decarboxylase activity ([7]; C+zinc: standard diet): 0.79 ± 0.22 RU/mg protein | Tryptophan hydroxylase activity ([7]; C+zinc: standard diet): 375 ± 61 RU/mg protein | Indoleamine dioxygenase activity ([7]; DIO+zinc: high-fat diet): 1768 ± 274 µmol/mg protein | Monoamine oxidase activity ([7]; DIO+zinc: high-fat diet): 1.72 ±0.03 RU/mg protein | Serotonin ([7]; DIO+zinc: high-fat diet): 9.73 ± 0.82 µg/g | Tryptophan ([7]; DIO+zinc: high-fat diet): 89.4 ± 8.99 µg/g | Tryptophan decarboxylase activity ([7]; DIO+zinc: high-fat diet): 0.78 ± 0.19 RU/mg protein | Tryptophan hydroxylase activity ([7]; DIO+zinc: high-fat diet): 253 ± 58 RU/mg protein | Monoamine oxylase activity ([8]; C+zinc: standard diet): 2.52±0.03 RU/mg protein | Serotonin ([8]; C+zinc: standard diet): 10.16 ± 0.62 µg/g | Tryptophan ([8]; C+zinc: standard diet): 56.12 ± 7.58 µg/g | Monoamine oxylase activity ([8]; DIO+zinc: high-fat diet): 3.11±0.08 RU/mg protein | Serotonin ([8]; DIO+zinc: high-fat diet): 6.33 ± 0.51 µg/g | Tryptophan ([8]; DIO+zinc: high-fat diet): 66.65 ± 9.62 µg/g | Indoleamine dioxygenase activity ([9]; C+zinc: standard diet): 1178 ± 267 µmol/mg protein | Monoamine oxidase activity ([9]; C+zinc: standard diet): 0.91 ±0.06 RU/mg protein | Serotonin ([9]; C+zinc: standard diet): 25.51 ± 2.71 µg/g | Tryptophan ([9]; C+zinc: standard diet): 87.71 ± 3.41 µg/g | Tryptophan decarboxylase activity ([9]; C+zinc: standard diet): 1.63 ± 0.41 RU/mg protein | Tryptophan hydroxylase activity ([9]; C+zinc: standard diet): 291 ± 29 RU/mg protein | Indoleamine dioxygenase activity ([9]; DIO+zinc: high-fat diet): 2007 ± 175 µmol/mg protein | Monoamine oxidase activity ([9]; DIO+zinc: high-fat diet): 0.99±0.08 RU/mg protein | Serotonin ([9]; DIO+zinc: high-fat diet): 20.1 ± 3.21 µg/g | Tryptophan ([9]; DIO+zinc: high-fat diet): 31.56 ± 2.14 µg/g | Tryptophan decarboxylase activity ([9]; DIO+zinc: high-fat diet): 1.86 ± 0.37 RU/mg protein | Tryptophan hydroxylase activity ([9]; DIO+zinc: high-fat diet): 286 ± 17 RU/mg protein | Superoxide dismutase activity (superoxide dismutase): 4.5±0.43 # RU/ min per mg protein | Catalase activity (catalase): 0.48±0.02 µmol H2O2/min per mg protein | serum insulin levels at day 7 after the withdrawal (insulin): increased | serum insulin levels on the first day after the drug withdrawal (insulin): slightly higher than in the group of intact animals | serum insulin levels at day 7 after the withdrawal (insulin; listed as zinc isotope): significant increase | body weight of rats [10]: significant increase | area of islets of Langerhans compared to the control group and the zinc acetate group (islets of Langerhans): significant increase | accumulation of zinc in the kidney and liver tissues [1]: significantly increased | area of collagen fiber deposits, increased by a factor versus the control group (liver; obesity group treated): 6 | increase in the area of deposition of collagen fibers (liver; rats eating a standard diet): 2 fold | Amount of food consumed ([11]; C+zinc: standard diet): 32 g/day | Calorie content of food ([11]; C+zinc: standard diet): 490 kJ/day | Weight gain as of the end of the experiment ([11]; C+zinc: standard diet): 59% | BMI ([11]; C+zinc: standard diet): 0.59 g/cm^2 | Amount of food consumed ([11]; DIO+zinc: high-fat diet): 29 g/day | Calorie content of food ([11]; DIO+zinc: high-fat diet): 823 kJ/day | Weight gain as of the end of the experiment ([11]; DIO+zinc: high-fat diet): 62% | BMI ([11]; DIO+zinc: high-fat diet): 0.65 g/cm^2
